According to the NIST ThermoML archive (doi:10.1016/j.fluid.2018.05.031):
± gives the expanded uncertainty stated by the source.

Conditions: Liquid; Ebulliometric method (Recirculating still)

Compound | Normal boiling temperature [°C]
CO [methanol] | 64.50 ± 0.2
COC(C)=O [methyl ethanoate] | 56.90 ± 0.2
